# Source: US11332485B2, “Penicillin-binding protein inhibitors” (priority 2017, dated 2022)
# What was measured:
# [1] = target: T1, PBP3 from Escherichia coli (Escherichia coli, UniProt P0AD68); assay: Fluorescence polarization competition binding assay with Bocillin-FL
# T1 construct: made in house
# Outline: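 Fluorescence polarization competition assay with Bocillin-FL at 0.1 μM final and purified E. coli PBP3 at 1.5 μM final in 50 mM Hepes pH 8.0, 300 mM NaCl, 5% glycerol. Inhibitor preincubated with PBP3 for 30 min before probe addition; FP then read continuously for 60 min. Potency reported in binned categories.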
# [2] = target: T2, PBP1b from Escherichia coli (Escherichia coli, UniProt P02919); assay: Radioligand competition binding assay with 14C-labeled boronic acid probe (Example 96); conditions: 14C-labeled probe 96 at 20 μM, PBP 0.1 μM; read-out: E. coli K12 PBP1b EC50
# T2 construct: made in house
# Outline: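 Purified PBP (0.1 μM) in 20 mM Tris pH 7.5, 500 mM NaCl, 0.1% Triton X-100 preincubated 60 min with inhibitor, then 60 min with 20 μM 14C-boronic acid probe. Bound probe recovered by spin desalting and counted by scintillation; EC50 is the concentration halving probe binding.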
# [3] = tested on: E. coli DH5α/pLBII; assay: Broth microdilution MIC assay, empty vector control strain; type: cell-based; conditions: Escherichia coli, read-out: E. coli DH5α/pLBII Microbiological Activity (MIC)
# Outline: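 CLSI broth microdilution in cation-supplemented Mueller-Hinton broth, 2-fold compound dilutions, 5×10^5 CFU/mL inoculum, 16-20 h at 37° C, MIC read visually as lowest concentration without growth. E. coli DH5α carries CTX-M15 on pLBII under Lac promoter, or empty pLBII as control.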
# T2 sequence (P02919 whole entry): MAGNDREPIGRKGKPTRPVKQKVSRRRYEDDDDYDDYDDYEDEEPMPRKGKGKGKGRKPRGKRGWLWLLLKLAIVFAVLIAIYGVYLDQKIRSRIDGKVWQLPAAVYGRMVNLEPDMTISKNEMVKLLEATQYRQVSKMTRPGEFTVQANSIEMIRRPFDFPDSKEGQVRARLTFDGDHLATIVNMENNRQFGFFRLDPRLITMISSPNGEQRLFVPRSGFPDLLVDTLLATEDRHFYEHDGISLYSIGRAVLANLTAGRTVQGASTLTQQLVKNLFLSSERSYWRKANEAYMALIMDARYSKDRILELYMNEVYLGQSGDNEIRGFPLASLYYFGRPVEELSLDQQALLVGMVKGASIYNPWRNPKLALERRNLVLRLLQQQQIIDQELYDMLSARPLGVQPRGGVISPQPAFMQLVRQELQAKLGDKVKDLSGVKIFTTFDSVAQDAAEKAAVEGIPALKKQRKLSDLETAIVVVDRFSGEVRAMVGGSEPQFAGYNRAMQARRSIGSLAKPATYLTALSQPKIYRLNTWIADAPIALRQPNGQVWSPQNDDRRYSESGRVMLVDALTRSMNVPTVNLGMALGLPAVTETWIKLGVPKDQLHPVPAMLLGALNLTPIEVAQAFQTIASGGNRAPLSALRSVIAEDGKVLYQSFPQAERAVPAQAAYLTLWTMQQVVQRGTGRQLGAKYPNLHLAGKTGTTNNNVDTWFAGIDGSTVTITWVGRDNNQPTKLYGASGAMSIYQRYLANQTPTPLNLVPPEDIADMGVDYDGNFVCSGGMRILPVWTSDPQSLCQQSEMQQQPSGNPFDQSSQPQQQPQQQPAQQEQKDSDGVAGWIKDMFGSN
# T1 sequence (P0AD68 1-577): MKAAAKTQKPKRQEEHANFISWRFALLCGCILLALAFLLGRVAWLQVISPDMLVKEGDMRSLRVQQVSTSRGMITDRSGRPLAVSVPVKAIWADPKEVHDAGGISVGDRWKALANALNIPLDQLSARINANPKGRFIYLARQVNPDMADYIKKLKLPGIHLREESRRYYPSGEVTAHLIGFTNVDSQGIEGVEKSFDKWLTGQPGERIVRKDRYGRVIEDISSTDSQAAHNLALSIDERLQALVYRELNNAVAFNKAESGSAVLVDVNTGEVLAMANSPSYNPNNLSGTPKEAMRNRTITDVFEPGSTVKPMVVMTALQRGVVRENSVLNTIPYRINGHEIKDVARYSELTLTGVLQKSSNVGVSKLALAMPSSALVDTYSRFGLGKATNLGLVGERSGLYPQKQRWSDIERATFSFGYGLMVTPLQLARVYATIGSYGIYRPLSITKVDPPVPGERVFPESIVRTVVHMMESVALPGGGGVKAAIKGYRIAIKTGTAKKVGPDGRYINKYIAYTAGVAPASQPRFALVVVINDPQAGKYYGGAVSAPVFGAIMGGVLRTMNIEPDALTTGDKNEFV
smiles,measurement,setting,value
"CCN1CCN(C(=O)NC(C(=O)N[C@H]2Cc3cccc(C(=O)O)c3OB2O)c2csc(N)n2)C(=O)C1=O (stereo partly drawn) [Example 12, (3R)-3-(2-(2-aminothiazol-4-yl)-2-(4-ethyl-2,3-dioxopiperazine-1-carboxamido)acetamido)-2-hydroxy-3,4-dihydro-2H-benzo[e][1,2]oxaborinine-8-carboxylic acid]",EC50,[1],< 30 µM
same,EC50,[2],< 10 µM
same,MIC,[3],8 to 16 µg/mL
